# In patent publication US20210379046A1, “Methods of Treating Diseases Using Kinase Modulators” (Memorial Sloan Kettering Cancer Center, priority 2018, published 2021):
# “Also recorded” adds a separate entry of the source.
# Key:
# pERK in TPC1 cells = assay: Western blot of pERK in TPC1 cells; format: cell-based, human; conditions: TPC1, 24 hrs
# Procedure: Cells were seeded in a 60 mm dish or 6 well plates. After the appropriate time point, cells were harvested and lysed and protein was quantified by a Lowry assay (Bio-Rad DC Protein Assay; #5000116). Protein levels were normalized and run on SDS PAGE gels (Bio-Rad). Protein was transferred to a nitrocellulose membrane using semi-dry transfer. Membrane was blocked and incubated with respective antibodies. When needed, secondary antibodies with HRP were incubated for 1 hr. Enhanced chemiluminescent substrate for HRP enzymes was used to image protein levels (Thermo-Fischer; #34095).
# Cells were seeded in a 60 mm dish or 6 well plates. After the appropriate time point, cells were harvested, lysed in RIPA buffer (Thermo Instruments) and protein concentration was quantified by a Lowry assay (using the Bio-Rad DC Protein Assay; #5000116 on a Spectramax device from Molecular Devices). Protein loading levels were equalized per lane and separated on SDS gels (Bio-Rad). Protein was transferred to a nitrocellulose membrance using semi-dry transfer (BioRad). Membranes were blocked with Omniblock (American Bio) and incubated with respected antibodies. When needed, secondary antibodies with HRP were incubated for 1 hr. Enhanced chemiluminescent substrate for HRP enzymes was used to image protein levels (Thermo-Fischer; #34095) on a ChemiDoc MP imager with Soft Max Pro software (Biorad).
# TPC1 cells = assay: Mass spectrometry of eluted HLA class I presented peptides, TPC1 cells; format: cell-based, human
# Procedure: After 72 hrs, cells were harvested, washed, lysed. The lysate was run through an activated Sepharose-CNBr column coupled to the W6/32 antibody to bind HLA-A,B,C from the cell. The peptides bound by those HLAs and captured on the column were then eluted and mass spectrometry was run on those peptides.
# Immunopurification affinity columns were prepared as described previously (Bassani-Sternberg et al., 2015, Mol Cell Proteomics 14(3):658-673). In brief, 40 mg of Cyanogen bromide-activated-Sepharose® 4B (Sigma-Aldrich, Cat #C9142) was activated with 1 mM hydrochloric acid (Sigma-Aldrich, Cat #320331) for 30 min. Subsequently, 0.5 mg of W6/32 antibody (BioXCell, BE0079; RRID: AB 1107730) was coupled to sepharose in presence of binding buffer (150 mM sodium chloride, 50 mM sodium bicarbonate, pH 8.3; sodium chloride: Sigma-Aldrich, Cat #S9888, sodium bicarbonate: Sigma-Aldrich, Cat #56014) for at least 2 hours at room temperature. Sepharose was blocked for 1 h with glycine (Sigma-Aldrich, Cat #410225). Columns were equilibrated with PBS for 10 min. […]. Afterwards, cells were lysed in 1 ml 1% CHAPS (Sigma-Aldrich, Cat #C3023) in PBS, supplemented with 1 tablet of protease inhibitors (cOmplete, Cat #11836145001) for 1 hour at 4° C. This lysate was spun down for 1 hour at 20,000 g at 4° C. Supernatant was run over the affinity column through peristaltic pumps at 1 ml/min overnight at 4° C. Affinity columns were washed with PBS for 15 min, run dry, and HLA complexes subsequently eluted three times with 200 μl 1% trifluoracetic acid (TFA, Sigma/Aldrich, Cat #02031). For separation of HLA ligands from their HLA complexes tC18 columns (Sep-Pak tC18 1 cc VacCartridge, 100 mg Sorbent per Cartridge, 37-55 μm Particle Size, Waters, Cat #WAT036820) were prewashed with 80% acetonitrile (ACN, Sigma-Aldrich, Cat #34998) in 0.1% TFA and equilibrated with two washes of 0.1% TFA. Samples were loaded, washed again with 0.1% TFA and eluted in 400 μl 30% ACN in 0.1% TFA. Sample volume was reduced by vacuum centrifugation for mass spectrometry analysis.
# Samples were analyzed by a high resolution/high accuracy LC-MS/MS (Lumos Fusion, Thermo Fisher). Peptides were desalted using ZipTips (Sigma Millipore, Cat. #ZTC18S008) according to manufactures instructions and concentrated using vacuum centrifugation prior to being separated using direct loading onto a packedin-emitter C18 column (75 um ID/12 cm, 3 μm particles, Nikkyo Technos Co., Ltd. Japan). The gradient was delivered at 300 nl/min increasing linear from 2% Buffer B (0.1% formic acid in 80% acetonitrile)/98% Buffer A (0.1% formic acid) to 30% Buffer B/70% Buffer A, over 70 minutes. MS and MS/MS were operated at resolutions of 60,000 and 30,000, respectively. Only charge states 1, 2 and 3 were allowed. 1.6 Th was chosen as the isolation window and the collision energy was set at 30%. For MS/MS, the maximum injection time was 100 ms with an AGC of 50,000.
# Mass spectrometry data was processed using Byonic software (version 2.7.84, Protein Metrics, PaloAlto, Calif.) through a custom-built computer server equipped with 4 Intel Xeon E5-4620 8-core CPUs operating at 2.2 GHz, and 512 GB physical memory (Exxact Corporation, Freemont, Calif.). Mass accuracy for MS1 was set to 10 ppm and to 20 ppm for MS2, respectively. Digestion specificity was defined as unspecific and only precursors with charges 1, 2, and 3 and up to 2 kDa were allowed. Protein FDR was disabled to allow complete assessment of potential peptide identifications. Oxidization of methionine, N-terminal acetylation, phosphorylation of serine, threonine and tyrosine were set as variable modifications for all samples. All samples were searched against the UniProt Human Reviewed Database (20,349 entries, uniprot.org, downloaded June 2017). […]
compound,measurement,setting,value
CCN1CCN(Cc2ccc(NC(=O)Nc3ccc(Oc4cc(NC)ncn4)cc3)cc2C(F)(F)F)CC1 [AST487],pERK levels,pERK in TPC1 cells,Inhibition of pERK was seen even at concentrations as low as 10 nM; also recorded: Phospho-ERK levels decreased
same,runs TEIPP peptide was found in (n = 3),TPC1 cells; ALFSFVTAL (SEQ ID NO: 11),0
same,runs TEIPP peptide was found in (n = 3),TPC1 cells; FLGPWPAAS (SEQ ID NO: 12),1
same,runs TEIPP peptide was found in (n = 3),TPC1 cells; FLSELQYYL (SEQ ID NO: 13),0
same,runs TEIPP peptide was found in (n = 3),TPC1 cells; FLYPFLSHL (SEQ ID NO: 14),0
same,runs TEIPP peptide was found in (n = 3),TPC1 cells; ILEYLTAEV (SEQ ID NO: 15),0
same,runs TEIPP peptide was found in (n = 3),TPC1 cells; LLALAAGLAV (SEQ ID NO: 16),0
same,runs TEIPP peptide was found in (n = 3),TPC1 cells; LLLDVPTAAV (SEQ ID NO: 17),0
same,runs TEIPP peptide was found in (n = 3),TPC1 cells; LLLSAEPVPA (SEQ ID NO: 18),0
same,runs TEIPP peptide was found in (n = 3),TPC1 cells; LLWGRQLFA (SEQ ID NO: 19),0
same,runs TEIPP peptide was found in (n = 3),TPC1 cells; LSEKLERI (SEQ ID NO: 20),0
same,runs TEIPP peptide was found in (n = 3),TPC1 cells; LTLLGTLWGA (SEQ ID NO: 21),0
same,runs TEIPP peptide was found in (n = 3),TPC1 cells; SVLWLGALGL (SEQ ID NO: 22),0
same,runs TEIPP peptide was found in (n = 3),TPC1 cells; TLLGASLPA (SEQ ID NO: 23),0
same,new peptides (only peptides found in all three runs counted),"TPC1 cells; TPC1, 10 nM AST487 or 100 nM cabozantinib",458
same,unique ligands presented,"TPC1 cells; TPC1, 10 nM AST487 or 100 nM cabozantinib, three runs pooled, DMSO 4211",5274
same,increase in unique peptides vs DMSO,"TPC1 cells; TPC1, three runs pooled",25%
same,unique HLA ligands detected in all 3 runs,"TPC1 cells; TPC1, DMSO 195",585
same,runs TEIPP peptide was found in (n = 3),TPC1 cells; VIIKPLVWV (SEQ ID NO: 24),0
same,runs TEIPP peptide was found in (n = 3),TPC1 cells; VLAVFIKAV (SEQ ID NO: 25),0
same,runs TEIPP peptide was found in (n = 3),TPC1 cells; VLLDHLSLA (SEQ ID NO: 26),0
